Where two headings read alike, the source gives them in different places.
Key:
[1] = Autosampler stability at 10 ± 2 °C; format: physicochemical, human; details: after 45 h
Method: (§1) The stability of NIN and BIBF 1202 in human plasma, including in the short term, autosampler, and freeze–thaw, was evaluated for the QC samples analyzed at two concentrations, 5.00 ng/mL (LQC1) and 170.00 ng/mL (HQC), studied in six replicates per test. The short-term stability of NIN and BIBF 1202 was assessed for the samples that were stored at ambient temperature (≤30 °C) for at least two hours, which were analyzed and compared with freshly prepared samples. Autosampler stability was determined by storing samples in the autosampler at 10 ± 2 °C for at least […]. Freeze–thaw stability was examined over three cycles, in which samples were frozen at ≤−14 °C for 12 h and subsequently thawed at ambient temperature (≤30 °C).
(§2) Autosampler stability was examined by storing samples at 10 ± 2 °C for up to 48 h. No impact of three freeze–thaw cycles (freezing at ≤−14 °C and thawing at ambient temperature) was observed on the stability of NIN or BIBF 1202.

[2] = Short-term stability in human plasma at ambient temperature (≤30 °C); format: in vitro ADME; details: for Short-term stability, Stability [%]: human plasma, ≤30 °C, vs reference samples
Method: as §1, §2

[3] = Freeze–thaw stability in human plasma, three cycles; format: in vitro ADME; details: for Freeze–thaw stability, Stability [%]: human plasma, 3 cycles (≤−14 °C / ambient); for Impact of freeze–thaw cycles on stability: three cycles, freezing at ≤−14 °C, thawing at ambient temperature
Method: as §1, §2

[4] = NIN and BIBF 1202 plasma concentrations (C0, Cmax) in patients treated with NIN, UPLC-MS/MS; format: in vivo, human; details: for Cmax: human, read-out: Mean Concentration Cmax; for Cmax / Mean Concentration C0: patient plasma; for Concentration in the patient sample (chromatogram): single patient sample after administration of 100 mg dose
Method: Whole blood was collected via standard venipuncture from 24 patients diagnosed with CTD-PPF. Patients received treatment with NIN, of whom 8 were administered a dose of 100 mg twice daily and 16 received 150 mg twice daily. Blood samples were obtained prior to the first daily NIN dose (trough concentration, C0) and 2–3 h afterward (maximum concentration, Cmax). Following collection, samples of whole blood with NIN and metabolite were centrifuged, and then plasma was stored at −70 °C. This study was approved by the Local Bioethics Committee of the National Institute of Geriatrics, Rheumatology, and Rehabilitation in Warsaw (KBT-5/3/2024).
To prepare the samples, 200 μL of plasma was spiked with 20 μL of IS (NIN-d3) and vortexed. Protein precipitation was carried out using 500 μL of chilled ACN solution after we previously neutralized the samples with 50 μL of 2 M sodium carbonate (Na2CO3). The samples were subsequently mixed on an orbital shaker (Vibrax, IKA, Staufen, Germany) for 30 s at 1800 and centrifuged for 10 min at 13,000 rpm, 3 °C. Then, 200 μL of the supernatant was transferred into autosampler vials for LC-MS/MS analysis under the conditions described in Section 2.6 and Section 2.7.
The UPLC Acquity I-class Plus system (Milford, MA, USA, Waters), equipped with a quaternary gradient pump, column oven, degasser unit, and autosampler, was used. The autosampler and column were maintained at 10 ± 2 °C and 40 ± 2 °C, respectively. The isocratic elution was carried out using a mobile phase consisting of 0.1% formic acid in water and acetonitrile (35:65, v/v). The mobile phase flowed through a Zorbax SB-C18 column (100 mm × 3.0 mm, 3.5 µm; Santa Clara, CA, USA, Agilent Technologies) at a flow rate of 0.3 mL/min. The system was equipped with an ASSY FRIT pre-column (0.2 µm, 2.1 mm; Milford, MA, USA, Waters). To prevent the carry-over effect, after the analysis, the injection needle was washed with a mixture consisting of acetonitrile, methanol, isopropyl alcohol, water, and formic acid (250:250:250:250:1, v/v/v/v/v).
Mass spectrometric analysis was performed using a XEVO-TQ-XS quadrupole mass spectrometer (Milford, MA, USA, Waters). Multiple Reaction Monitoring (MRM) chromatograms were acquired and processed with MassLynx 4.2 software (Milford, MA, USA, Waters). Ionization was carried out in positive ion mode using electrospray ionization (ESI+). MS parameters of instruments and analyzed compounds are detailed in Table 1.
The LC-MS/MS method developed and fully validated in this study was used to analyze the concentrations (C0 and Cmax) of nintedanib and its metabolite BIBF 1202 in human plasma. Twenty-four patients were treated with two doses of NIN (8 patients: 100 or 16 patients: 150 mg twice daily). In total, 48 samples were collected from patients at two time points: a morning dose at the trough level, and a dose 2–3 h (Cmax) after the morning dose administration. The concentrations of NIN and its metabolite were determined in the plasma of 24 patients (Male/Female 8:16, mean age 56.2, age range 35–75) with progressive pulmonary fibrosis associated with systemic sclerosis. The obtained results are presented in Table 7 and illustrated graphically (Figure 4).

[5] = design: method as in PK study presented in the literature; details: ref PK study presented in the literature; cited from earlier work
[6] = design: method as in PMID 26072676; details: cited from earlier work
[7] = 2 h at ambient temperature (≤30 °C)
[8] = NIN 100 mg twice daily, n = 8, 2–3 h after morning dose
[9] = NIN 150 mg twice daily, n = 16, 2–3 h after morning dose
[10] = NIN 100 mg twice daily, n = 8, trough (before first daily dose)
[11] = NIN 150 mg twice daily, n = 16, trough (before first daily dose)

| Autosampler stability, Stability [%] ([1]; HQC (170.00 ng/mL)) | Autosampler stability, Stability [%] ([1]; LQC1 (5.00 ng/mL)) | Short-term stability, Stability [%] ([2]; 2 h, HQC (170.00 ng/mL)) | Short-term stability, Stability [%] ([2]; 2 h, LQC1 (5.00 ng/mL)) | Effect of storing plasma samples on concentration [2, 7] | Effect of storing plasma samples on concentration ([2]; 4 h at ≤30 °C) | Freeze–thaw stability, Stability [%] ([3]; HQC (170.00 ng/mL)) | Freeze–thaw stability, Stability [%] ([3]; LQC1 (5.00 ng/mL)) | Impact of freeze–thaw cycles on stability [3] | Cmax [4, 8] [ng/mL] | Cmax [4, 9] [ng/mL] | Mean Concentration C0 [4, 10] [ng/mL] | Mean Concentration C0 [4, 11] [ng/mL] | Concentration in the patient sample (chromatogram) [4] [ng/mL] | Short-term stability, Stability [%] ([2]; 4 h, HQC (170.00 ng/mL)) | Short-term stability, Stability [%] ([2]; 4 h, LQC1 (5.00 ng/mL)) | Compound | Time of peak plasma concentrations after administration [5] [h] | Rate of diarrhea ([6]; patients who continued NIN) [%] | Rate of diarrhea ([6]; patients who initiated NIN) [%] |
| --- | --- | --- | --- | --- | --- | --- | --- | --- | --- | --- | --- | --- | --- | --- | --- | --- | --- | --- | --- |
| 98.9 | 98.5 | 102.3 | 100.8 | did not cause changes | reduction in the BIBF signal | 105.9 | 94.7 | No impact | 26.6 | 57.8 | 9.81 | 35.20 | 28.0 | – | – | CN1CCN(CC(=O)N(C)c2ccc(N/C(=C3\C(=O)Nc4cc(C(=O)O)ccc43)c3ccccc3)cc2)CC1 [BIBF 1202] | – | – | – |
| 100.6 | 96.4 | – | – | did not cause changes | no effect | 99.7 | 94.6 | No impact | 16.5 | 28.7 | 7.33 | 18.60 | 12.3 | 101.3 | 100.7 | COC(=O)c1ccc2c(c1)NC(=O)/C2=C(\Nc1ccc(N(C)C(=O)CN2CCN(C)CC2)cc1)c1ccccc1 [NIN, Nintedanib] | 2 to 3 | 60.1 | 71 |
